Drawing on patent publication US20080261923A1, “Alkene Mimics” (priority 2004, published 2008), this text covers IC50 for one molecule.

For the test, the target named is human Pin1 (Homo sapiens, UniProt Q13526). Nature of the test: IC50 measurement of inhibitors for Pin1 (chymotrypsin-coupled peptidyl-prolyl isomerase assay, SucAEPF-pNA). To be noted: cis substrate SucAEPF-pNA 43.2 μM, 31 mM HEPES pH 7.8, 4° C., absorbance at 390 nm; read-out: IC50 value for the inhibition of human Pin1 peptidyl-prolyl isomerase activity. Format: biochemical. The protocol:
Measurement of human Pin1 peptidyl-prolyl isomerase activity. The concentration of the cis conformation of substrate, SucAEPF-pNA, was determined by the UV absorbance of pNA (ε=12250 at […]) after cleavage by α-chymotrypsin. The cis component of the substrate was approximately 51%. The assay buffer (1050 μL of 35 mM HEPES, pH 7.8 at 0° C.; final concentration 31 mM HEPES) and Pin1 (10 μL of a 8.0 μM stock solution, concentration measured by Bradford assay, final concentration 67 nM) were pre-equilibrated in the spectrometer until the temperature reached 4.0° C. Immediately before the assay was started, 120 μL of ice-cooled α-chymotrypsin solution (60 mg/mL in 0.001 M HCl; final concentration 6 mg/mL) was added. Additional substrate solvent (0.47 M LiCl/TFE) was added as needed to bring the total volume of substrate and cosolvent to 10 μL. The peptide substrate, dissolved in dry 0.47 M LiCl/TFE, was added to the cuvette via syringe and the solution was mixed vigorously by inversion 3 times. The final volume in a semi micro 1 cm path length polystyrene cell was 1.2 mL.
IC50 measurement of inhibitors for Pin1. Human Pin1 was assayed at a cis substrate concentration of 43.2 μM. […] After a mixing delay of 6-8 sec, the progress of the reaction was monitored by absorbance at 390 nm for 90 sec.

Chain of human Pin1 (Q13526 whole entry): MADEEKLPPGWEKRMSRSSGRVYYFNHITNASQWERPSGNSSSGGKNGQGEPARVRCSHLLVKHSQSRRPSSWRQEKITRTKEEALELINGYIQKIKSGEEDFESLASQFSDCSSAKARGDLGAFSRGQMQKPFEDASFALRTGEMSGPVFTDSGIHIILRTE

Turning to `CC(=O)N[C@@H](Cc1ccccc1)C(=O)N[C@@H](Cc1ccc(O)cc1)C(=O)N[C@H](/C=C1/CCC[C@H]1C(=O)N[C@@H](CCCNC(=N)N)C(N)=O)COP(=O)(O)O` [Ac-Phe-Tyr-phosphoSer-Ψ[(Z)CH═C]-Pro-Arg-NH2], the IC50 amounted to 0.97 µM.
